The test system of one test is HCT116 cell lines. Briefly: IC50 and cell viability assay of clinical drugs (CCK-8). In kind it is cell-based, human. The conditions noted are these: CCK-8, absorbance 450 nm, triplicate, mean ± SD, Resistance = drug does not affect cell viability. As to the method: All the mediums were purchased from […].
To determine suitable cell seeding number for each cell line, different number (300, 500, 1000, 3000) of cells/wells were seeded in a 96-well plate. A cell viability was determined using a real-time viability assay (RealTime-Glo™ Assay Reagent). Luminescence intensities were measured at different time points (4, 8, 16, 24, 36, 48, 60 and 72 hours) to evaluate a cell growth curve. To establish IC50 values of ten drugs on each cell line, gradient concentrations of each drug were prepared. […] The cell viability was measured with Cell Counting Kit 8 (e.g., CCK-8 purchased from Dojindo molecular technologies, Japan), and cell viability assay was performed after 2 hours of incubation by measuring the absorbances at 450 nm. Relative cell numbers were determined as compared with the control cells. All experiments were performed in triplicate manner, and data were represented as expressed as mean±standard deviation (mean±SD).
With `Nc1nc(=O)c2c([nH]1)NCC(CNc1ccc(C(=O)N[C@@H](CCC(=O)O)C(=O)O)cc1)N2C=O` (mixture of isomers) [Folinic acid (F), Folinic acid], the “IC50 (μM) ± SD” value is recorded as “Resistance”.

Regarding `O=C1[O][Pt]2([NH][C@@H]3CCCC[C@H]3[NH]2)[O]C1=O` [Oxaliplatin (O), Oxaliplatin], the IC50 (in general, the concentration needed to halve the response being measured) was 10.3 ± 3.27 µM.

In the case of Bevacizumab [Bevacizumab (B)], the “IC50 (μM) ± SD” value is recorded as “Resistance”.

On to Panitumumab [Panitumumab (P)], for which the “IC50 (μM) ± SD” value was “Resistance”.

The test is the same for the next values; noted with them: Homo sapiens, HCT-116, CCK-8, absorbance 450 nm, triplicate, mean ± SD, Resistance = drug does not affect cell viability.
`O=c1[nH]cc(F)c(=O)[nH]1` [5-FU (U), 5-Fluorouracil] registered an IC50 of 8.56 ± 0.897 µM.

`Nc1ccn([C@@H]2O[C@H](CO)[C@@H](O)C2(F)F)c(=O)n1` [Gemcitabine (G), Gemcitabine]: the IC50 stood at 0.183 µM.

For `CCc1c2c(nc3ccc(OC(=O)N4CCC(N5CCCCC5)CC4)cc13)-c1cc3c(c(=O)n1C2)COC(=O)[C@]3(O)CC` [Irinotecan (I), Irinotecan], the IC50 was determined as 0.01 ± 0.03 µM.

As for `COc1cc2nccc(Oc3ccc(NC(=O)NC4CC4)c(Cl)c3)c2cc1C(N)=O` [Lenvatinib (L), Lenvatinib], the IC50 was 28.5 ± 0.802 µM.

Molecule `CNC(=O)c1cc(Oc2ccc(NC(=O)Nc3ccc(Cl)c(C(F)(F)F)c3)c(F)c2)ccn1` [Regorafenib (R), Regorafenib] gave an IC50 of 5.89 ± 0.713 µM.

For the origin of these results see US20240207237A1, “METHOD OF SCREENING FOR DRUG COMBINATION FOR COLORECTAL CARCINOMA TREATMENT, DRUG COMBINATION AND USE THEREOF” (National Tsing Hua University, priority 2022, published 2024).
